Patent US20100291010A1, “NOVEL ESTERS AND COMPOSITIONS AND USES THEREOF” (INNOSPEC LIMITED, priority 2007, published 2010)

From the text: These two sunscreens are difficult to dissolve and keep in solution for use in sunscreen formulations for optimal SPF (Sun-Protection Factors). Higher solvency for a sunscreen ingredient is described as it allows higher concentrations of the sunscreen active ingredient in a formulation. […] The liquid organic sunscreens that are commonly used as octylsalicylate (OS) and octyl-methoxycinnamate (OMC).

COc1ccc(C(=O)c2ccccc2)c(O)c1 [Benzophenone-3, 2 hydroxy-4-methoxybenzophenone]
Solubility in Finester LP (%): 10% | Solubility in Finsolv TN (%): 15%
